Assay results reported in patent publication US20240116946A1 (Gilead Sciences, Inc., priority 2022, published 2024).
Where two headings read alike, the source gives them in different places.

Key:
SARS-CoV-2-NLuc = test: microbe, parasite or virus in culture; assay type: cell-based, SARS Coronavirus 2
[1] = molecular target: recombinant SARS-CoV-2 Main protease (Mpro) (Severe acute respiratory syndrome coronavirus 2 (2019-nCoV) (SARS-CoV-2), UniProt P0DTD1); test: Cov Mpro Biochemical IC50 Assay; settings: read-out: MPro IC50
[2] = Severe acute respiratory syndrome coronavirus, 48 h, read-out: MPro EC50
[3] = recombinant SARS-CoV-2 Mpro, fluorogenic peptide substrate
[4] = recombinant SARS-CoV-2 Mpro 7.5 nM, fluorogenic peptide substrate 40 μM
[5] = Severe acute respiratory syndrome coronavirus, 48 h; read-out: MPro EC50

Q: For `O=c1[nH]c2cc(-c3cccc(Cl)c3)ccc2c(=O)n1-c1cncc2ccccc12` [Example 56], which EC50 (SARS-CoV-2-NLuc; [2]) is on record?
A: Its EC50 is 3940 nM.

Q: What about the IC50 [1, 3] of the same compound?
A: Its IC50 is 2750 nM.

Q: Which results are given for `COc1ccc(Cn2c(=O)n(-c3cncc4ccccc34)c(=O)c3sc(-c4cccc5c4CCC5)cc32)cc1` [Example 167, 6-(2,3-dihydro-1H-inden-4-yl)-3-(isoquinolin-4-yl)-1-(4-methoxybenzyl)thieno[3,2-d]pyrimidine-2,4(1H,3H)-dione]?
A: EC50 (SARS-CoV-2-NLuc; [2]): 4510 nM; IC50 [1, 3]: 49700 nM

Q: How did the EC50 (SARS-CoV-2-NLuc; [2]) turn out when `COc1cc(-c2ccc3c(=O)n(-c4cncc5ccccc45)c(=O)[nH]c3c2)c(Cl)cn1` [Example 253] was run?
A: The EC50 was 1210 nM.

Q: What about the IC50 [1, 3] of the same compound?
A: Its IC50 is 459 nM.

Q: How did the EC50 (SARS-CoV-2-NLuc; [2]) turn out when `N#CCCn1c(=O)n(-c2cncc3cccc(F)c23)c(=O)c2sc(-c3ccccc3Cl)cc21` [Example 1084] was run?
A: The EC50 was 11.7 nM.

Q: What about the IC50 [1, 4] of the same compound?
A: The IC50 was 7.62 nM.

Q: What does the source list for `Cc1cccc(-c2ccccc2)c1-c1ccc2c(=O)n(-c3cncc4ccccc34)c(=O)[nH]c2c1` [Example 97]?
A: EC50 (SARS-CoV-2-NLuc; [2]): 266 nM; IC50 [1, 3]: 397 nM

Q: For `NC(=O)c1ccccc1-c1cnc2c(=O)n(-c3cncc4ccccc34)c(=O)[nH]c2c1` [Example 70], which EC50 (SARS-CoV-2-NLuc; [2]) is on record?
A: The EC50 was > 50000 nM.

Q: What about the IC50 [1, 3] of the same compound?
A: Its IC50 is 2680 nM.

Q: How did the EC50 (SARS-CoV-2-NLuc; [2]) turn out when `C#Cc1cccc(Cl)c1-c1ccc2c(=O)n(-c3cncc4ccccc34)c(=O)[nH]c2c1` [Example 159, 7-(2-chloro-6-ethynyl-phenyl)-3-(4-isoquinolyl)-1H-quinazoline-2,4-dione] was run?
A: Its EC50 is 335 nM.

Q: What about the IC50 [1, 3] of the same compound?
A: The IC50 was 988 nM.

Q: What does the source list for `O=c1[nH]c2cc(-c3ccccc3Cl)cc(F)c2c(=O)n1-c1cncc2ccccc12` [Example 222]?
A: EC50 (SARS-CoV-2-NLuc; [2]): 151 nM; IC50 [1, 3]: 153 nM

Q: `O=c1[nH]c2cc(-c3ccccc3Cl)sc2c(=O)n1-c1cncc2ccc(N3CC4(C3)CS(=O)(=O)C4)cc12` [Example 395] was tested. Which EC50 (SARS-CoV-2-NLuc; [2]) did it give?
A: Its EC50 is 80.7 nM.

Q: And the IC50 [1, 4]?
A: Its IC50 is 7.25 nM.

Q: Which results are given for `COc1cnc(Cl)c(-c2cc3c(s2)c(=O)n(-c2cncc4ccccc24)c(=O)n3CC2(C#N)CC2)c1` [Example 759]?
A: EC50 (SARS-CoV-2-NLuc; [2]): 4.85 nM; IC50 [1, 4]: 5.39 nM

Q: `NC(=O)c1cccc(-c2cccc(Cl)c2-c2ccc3c(=O)n(-c4cncc5ccccc45)c(=O)[nH]c3c2)c1` [Example 242] was tested. Which EC50 (SARS-CoV-2-NLuc; [2]) did it give?
A: The EC50 was 40.1 nM.

Q: And the IC50 [1, 3]?
A: The IC50 was 10.4 nM.

Q: How did the EC50 (SARS-CoV-2-NLuc; read-out: MPro EC50) turn out when `O=c1[nH]c2cc(-c3ccccc3Cl)sc2c(=O)n1-c1cncc2ccccc12` (single isomer, unassigned) [Example 150, 6-(2-chlorophenyl)-3-(isoquinolin-4-yl)thieno[3,2-d]pyrimidine-2,4(1H,3H)-dione] was run?
A: Its EC50 is 124 nM.

Q: What about the IC50 [1, 3] of the same compound?
A: The IC50 was 73 nM.

Q: Which EC50 (SARS-CoV-2-NLuc; [2]) does the source give for `COc1cc(-c2cc3[nH]c(=O)n(-c4cncc5c4c(C)nn5CC(F)(F)F)c(=O)c3s2)c(Cl)cc1F` [Example 741] here?
A: Its EC50 is > 1000 nM.

Q: And the IC50 [1, 4]?
A: Its IC50 is > 1000 nM.

Q: `Cc1nc(Cl)ccc1-c1cc2[nH]c(=O)n(-c3cncc4ccccc34)c(=O)c2s1` [Example 288] was tested. Which EC50 (SARS-CoV-2-NLuc; [2]) did it give?
A: Its EC50 is 1050 nM.

Q: What about the IC50 [1, 3] of the same compound?
A: The IC50 was 227 nM.

Q: For `O=c1[nH]c2cc(-c3ccccc3Cl)sc2c(=O)n1-c1cncc2ccc(N3CC4(CCCO4)C3)cc12` [Example 402], which EC50 (SARS-CoV-2-NLuc; [2]) is on record?
A: The EC50 was 12.1 nM.

Q: What about the IC50 [1, 4] of the same compound?
A: Its IC50 is 6.05 nM.

Q: For `Cc1ccc(Cl)c(-c2cc3[nH]c(=O)n(-c4cncc5ccccc45)c(=O)c3s2)c1` [Example 338], which EC50 (SARS-CoV-2-NLuc; [2]) is on record?
A: The EC50 was 37.5 nM.

Q: What about the IC50 [1, 3] of the same compound?
A: The IC50 was 13.8 nM.

Q: What does the source list for `COc1cc(-c2cc3[nH]c(=O)n(-c4cncc5ncccc45)c(=O)c3s2)c(Cl)cc1F` [Example 737]?
A: EC50 (SARS-CoV-2-NLuc; [2]): 74.1 nM; IC50 [1, 4]: 17.9 nM

Q: Which results are given for `Cc1c(Cl)cncc1-n1c(=O)c2sc(-c3ccccc3Cl)cc2n(CCC#N)c1=O` [Example 834]?
A: EC50 (SARS-CoV-2-NLuc; [5]): 34.2 nM; IC50 [1, 4]: 19.5 nM

Q: With `CC(=O)N1CCN(c2ccc3cncc(-n4c(=O)[nH]c5cc(-c6ccccc6Cl)sc5c4=O)c3c2)CC1` [Example 387] as the compound, how does the EC50 (SARS-CoV-2-NLuc; [2]) read?
A: The EC50 was 30.3 nM.

Q: And the IC50 [1, 3]?
A: The IC50 was < 2.54 nM.

Q: Which results are given for `COc1cc(-c2cc3[nH]c(=O)n(-c4cncc5nc(C)n(C)c45)c(=O)c3s2)c(Cl)cc1F` [Example 764]?
A: EC50 (SARS-CoV-2-NLuc; [2]): 257 nM; IC50 [1, 4]: 18.1 nM

Q: `COc1nn(C)cc1-c1cccc(Cl)c1-c1ccc2c(=O)n(-c3cncc4ccccc34)c(=O)[nH]c2c1` [Example 273] was tested. Which EC50 (SARS-CoV-2-NLuc; [2]) did it give?
A: The EC50 was 6.41 nM.

Q: And the IC50 [1, 3]?
A: Its IC50 is 14.9 nM.

Q: `COc1cc(-c2cc3c(s2)c(=O)n(-c2cncc4nnn(C)c24)c(=O)n3CCC#N)c(Cl)cc1F` [Example 936, 3-(6-(2-chloro-4-fluoro-5-methoxyphenyl)-3-(1-methyl-1H-[1,2,3]triazolo[4,5-c]pyridin-7-yl)-2,4-dioxo-3,4-dihydrothieno[3,2-d]pyrimidin-1(2H)-yl)propanenitrile] was tested. Which EC50 (SARS-CoV-2-NLuc; [2]) did it give?
A: Its EC50 is 6.65 nM.

Q: What about the IC50 [1, 4] of the same compound?
A: The IC50 was 5.46 nM.

Q: What does the source list for `COc1cc(-c2cc3[nH]c(=O)n(-c4cncc5ccccc45)c(=O)c3cc2OC)c(C#N)cc1F` (single isomer, unassigned) [Example 572, 5-fluoro-2-[3-(4-isoquinolyl)-6-methoxy-2,4-dioxo-1H-quinazolin-7-yl]-4-methoxy-benzonitrile]?
A: EC50 (SARS-CoV-2-NLuc; read-out: MPro EC50): 10.6 nM; IC50 [1, 4]: 2.9 nM

Q: Which results are given for `Cc1cnnc(-n2c(=O)c3sc(-c4ccccc4Cl)cc3n(CCC#N)c2=O)c1` [Example 835]?
A: EC50 (SARS-CoV-2-NLuc; [5]): 28.1 nM; IC50 [1, 4]: 9.44 nM
